# Reference: US7300645B2, “Oral composition comprising isomalt and remineralizing enhancing agent” (Sunstar Kabushiki Kaisha, priority 1998, dated 2007)
# Experiment: Remineralizing ability 1: bovine enamel block with artificial caries immersed in sugar test solution
# Conditions: sugar 20% in 3.0 mM calcium ion / 1.8 mM phosphate ion, immersed ten days
# Experimental: The remineralization effect of the sugars was evaluated in an in vitro test using a bovine tooth according to the procedures described in D. J. White et al., Caries Res., 21, 228 (1987).
# 1. An enamel section having 4 mm length×3 mm width was obtained from the bovine tooth. The section was embedded in a dental resin to obtain an enamel block.
# 2. An enamel varnish was applied to a portion of approximately ⅓ of the surface of the enamel block in order not to cause the demineralization of that portion. Then, the enamel block was demineralized with a demineralizing solution containing 50% of saturated hydroxyapatite/0.1M lactic acid/pH 5.0 to prepare an artificial caries.
# 3. An enamel varnish was applied to a portion of approximately ⅔ of the surface of the treated enamel block in order not to cause the remineralization of that portion. The enamel block was immersed for ten days in a test solution prepared by adding the test sugar into an aqueous solution containing 3.0 mM calcium ion and 1.8 mM phosphate ion so that the concentration of the sugar became 20%, to perform the remineralization treatment.
# 4. Three thin sections having approximately 500 μm in thickness were prepared from the enamel block. The central portion of the thin sections was ground so that the thickness became approximately 100 μm using a double-side polishing machine.
# 5. The X-ray photograph was taken of the thin section prepared in the fourth step. The mineral amounts of the demineralized portion and the remineralized portion were calculated based on the brightness of the each portion and a distance from the surface using an image processor. The mineral amount difference between the demineralized and remineralized portions was expressed as a remineralization value. […] A control test was performed in a similar manner to that described above, except that the test solution containing only 3.0 mM calcium ion and 1.8 mM phosphate ion but not containing the sugar was used.
# Further, a similar test was performed in which sodium fluoride was added to the test solution to 2 ppm in terms of fluoride ion.
# [1] = sodium fluoride added to 2 ppm fluoride ion
Compound,Remineralization value [1],Remineralization value (system not containing fluoride)
OC[C@@H](O)[C@@H](O)CO [Erythritol],1330 Vol. % μm,602 Vol. % μm
OC[C@@H](O)[C@@H](O)[C@H](O)[C@H](O)CO [Mannitol],1377 Vol. % μm,640 Vol. % μm
OC[C@@H](O)[C@@H](O)[C@H](O)[C@@H](O)CO [Sorbitol],1358 Vol. % μm,645 Vol. % μm
OC[C@H]1O[C@H](O[C@H]2O[C@H](CO)[C@@H](O)[C@H](O)[C@H]2O)[C@H](O)[C@@H](O)[C@@H]1O [Trehalose],1205 Vol. % μm,715 Vol. % μm
OC[C@@H](O)[C@H](O)[C@@H](O)CO [Xylitol],1636 Vol. % μm,416 Vol. % μm
"α-D-glucopyranosyl-1,6-mannitol, its isomer, α-D-glucopyranosyl-1,6-sorbitol or a mixture thereof [Palatinit]",2374 Vol. % μm,1057 Vol. % μm
